Measured values: US12168033B2, “Synergistic composition for osteoarthritis” (LAILA NUTRACEUTICALS, priority 2014, dated 2024)

Tested on: Adjuvant Induced Arthritis
Assay: Adjuvant Induced Arthritis in Sprague Dawley rats, Complete Freund's Adjuvant, 20 days (Example 20)
Format: in vivo
Text: Sprague Dawley Rats were housed in solid bottom autoclaved polypropylene cages at three rats per cage with stainless steel top grill. Animals were provided with rodent pellet feed and mineral water ad libitum. The animals were acclimatized for a period of 3 days prior to enrollment into the experiment and they are habituated/adapted to the experimenter and to the experimental conditions for measurement of hind limb weight bearing capacity in the Incapacitance meter. A group of 35 animals were examined and 30 healthy SD rats were selected for the study and were randomly assigned to one of five different groups based on the paw volume, i.e., normal control (G1), vehicle control (G2), two groups (G3 & G4) supplemented with test substances composition-11 (200 mg 400 mg) and with reference drug prednisolone 10 mg/kg (G5). After 7 days administration of test item, reference item or vehicle, on day 8 arthritis was induced in rats of all groups except G1 by a single subcutaneous injection of 50 μL Complete Freund's Adjuvant (Sigma-Aldrich, USA), into the sub plantar region of left hind limb. Control group animals were injected with 0.1 mL normal saline (0.9% w/v sodium chloride). The vehicle, test items and reference drug were administered till completion of the study, i.e., 20 days. Paw volume was measured by a Plethysmometer (Pan Lab, LE7500) on day 0 (prior to treatment) and day 20. The difference between the final and initial paw volume was considered as edema volume. The in vivo anti-inflammatory responses of test compounds were estimated by calculating the percentage inhibition of paw edema when compared to the paw edema observed in the CMC supplemented control group. […] Percentage weight bearing capacity was measured in all the groups before induction and on 20th day of treatment using Incapacitance Meter (IITC Life Science Inc., CA).

C[C@]12C=CC(=O)C=C1CC[C@@H]1[C@@H]2[C@@H](O)C[C@@]2(C)[C@H]1CC[C@]2(O)C(=O)CO [Prednisolone, prednisolone]
Percent Weight Bearing on Left Hind Limb, Day-20 (10 mmp (prednisolone), Day-20, mean ± S.E.M, six rats): 49.88 ± 1.13% | Percent Weight Bearing on Left Hind Limb, Before Induction (10 mmp (prednisolone), before induction): 49.57 ± 0.55% | % inhibition of paw edema (prednisolone 10 mg/kg, day 20): 69.7%
